Measured values from patent US20030224390A1, “Method of identifying conformation-sensitive binding peptides and uses thereof” (Karo Bio AB, priority 2000, published 2003).

Assays:
ERβ = ERβ (Homo sapiens, UniProt Q92731); test: Binding of the peptide probes to ERβ in the presence of modulators (Table 15b)
androgen receptor [1] = biological target: T1, androgen receptor (Homo sapiens, UniProt P10275); type: cell-based; set-up: expressed in transfected cells; settings: for luciferase normalized to β-galactosidase, DHT / luciferase normalized to β-galactosidase, MPA / luciferase normalized to β-galactosidase, RU486 / luciferase normalized to β-galactosidase, no compound: mammalian two-hybrid, Huh-7 cells; for luciferase normalized to β-galactosidase, DHT: ligand DHT; for luciferase normalized to β-galactosidase, MPA: ligand MPA; for luciferase normalized to β-galactosidase, RU486: ligand RU486
T1 sequence (P10275 1-920): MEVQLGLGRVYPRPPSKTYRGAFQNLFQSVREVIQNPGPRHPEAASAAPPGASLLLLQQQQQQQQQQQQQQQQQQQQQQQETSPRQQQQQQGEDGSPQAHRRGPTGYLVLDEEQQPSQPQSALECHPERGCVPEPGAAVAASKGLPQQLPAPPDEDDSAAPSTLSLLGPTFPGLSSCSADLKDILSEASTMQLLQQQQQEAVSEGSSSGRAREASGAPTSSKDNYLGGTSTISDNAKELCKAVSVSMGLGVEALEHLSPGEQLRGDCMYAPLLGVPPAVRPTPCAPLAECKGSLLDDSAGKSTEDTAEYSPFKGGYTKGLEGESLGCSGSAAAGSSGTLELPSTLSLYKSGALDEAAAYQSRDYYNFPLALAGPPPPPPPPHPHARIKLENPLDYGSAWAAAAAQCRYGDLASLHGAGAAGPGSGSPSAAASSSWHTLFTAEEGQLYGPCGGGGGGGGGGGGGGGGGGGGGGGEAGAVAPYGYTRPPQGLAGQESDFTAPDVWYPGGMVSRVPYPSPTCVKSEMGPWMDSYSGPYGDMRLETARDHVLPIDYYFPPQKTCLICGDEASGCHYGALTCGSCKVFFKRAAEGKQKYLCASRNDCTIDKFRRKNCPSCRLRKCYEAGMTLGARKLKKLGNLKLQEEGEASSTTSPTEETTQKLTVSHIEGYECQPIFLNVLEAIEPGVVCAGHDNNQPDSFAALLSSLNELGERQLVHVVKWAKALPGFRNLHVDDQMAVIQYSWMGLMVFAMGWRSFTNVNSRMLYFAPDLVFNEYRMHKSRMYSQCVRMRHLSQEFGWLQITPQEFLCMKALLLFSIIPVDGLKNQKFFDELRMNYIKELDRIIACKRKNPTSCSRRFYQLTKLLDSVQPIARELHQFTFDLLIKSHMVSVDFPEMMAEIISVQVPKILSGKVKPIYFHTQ
Description: We used a mammalian two-hybrid system to determine specificities of the AR-binding peptides previously identified, through screening of the aforementioned yeast library, as ligand-dependent in their binding activity. Ligand was provided to the cells so the interaction could be observed. The human hepatoma cell line, Huh-7, was used as the recipient of two-hybrid vectors, pM and pVP16 (Clontech) (FIGS. 6A and 6B), containing fusions with peptide and AR, respectively. According to Clontech literature, the Clontech vectors pM and VP16 generate fusions of protein X with the GAL4 DNA-BD and fusions of protein Y with the VP16AD, in the Mammalian MM Two-Hybrid Assay Kit (#K1602-1). (Note: pM and VP16 contain unique cloning sites in the same order and reading frame as the DNA-BD and AD, respectively, vectors in the yeast […] Two-Hybrid Systems.) A third vector, pG5CAT, provides a CAT reporter gene under the control of a GAL4-responsive element and minimal promoter of the adenovirus E1b. The three vectors are cotransfected into any suitable mammalian host cell line by standard methods. The interaction between proteins X and Y is then assayed by measuring CAT gene expression by any standard method. In the absence of activation (i.e., no protein-protein interaction), the minimal E1b promoter will not express significant levels of CAT.
Briefly, cells are seeded in a 24-well culture plate to a density of 50-80% confluence in phenol red-free media containing charcoal-dextran stripped fetal bovine serum (10%). Following incubation overnight, cells are transfected with plasmids pM-peptide, pVP16-AR, pCMV-b-gal, and p5XGAL-Luc3 DNAs using lipofectamine 2000 (LifeTech) according to the manufacturer's protocol. Transfections are allowed to proceed for 6 hours and the transfection media is aspirated and replaced with recovery media for 18 hours. Following the recovery period, cells are treated with compound for 24 hours prior to cell harvesting. Cells are washed with PBS and then lysed using the lysis buffer from the Galacto-Light Plus β-galactosidase assay kit (Tropix). Assays for luciferase and β-galactosidase were performed as described by the manufacturer. Peptide/AR interactions are described in terms of the luciferase activity normalized for transfection efficiency using β-galactosidase activity (see FIG. 4A). Two types of useful information arose from these methods: 1) we generated a panel of useful peptide probes to analyze the conformational state of AR, and 2) we “fingerprinted” AR modulators with respect to AR conformation (FIG. 4B). […] FIG. 4B is the converse of 4A. It compares the ability of six ligands (DHT, MPA, CYP, RU486, FLUT and DHEAs to interact with AR in the presence of each of four peptides (D30, 5G11, B8H3 and […]). Thus, it is a “fingerprint” of each of the six ligands using a four peptide panel. (Note that “1269” and D30” refer to the same peptide.)

androgen receptor [2] = biological target: T1, androgen receptor; test: Yeast two-hybrid screening of unbiased X15 peptide library, ligand induced β-galactosidase activity (FIG. 3, Table 503); type: cell-based; set-up: expressed in transfected cells; host or cells: Saccharomyces cerevisiae PJ69-4α; ligand induced β-galactosidase activity, No Lig / ligand induced β-galactosidase activity, DHT / ligand induced β-galactosidase activity, CPA / ligand induced β-galactosidase activity, RU / ligand induced β-galactosidase activity, Test / ligand induced β-galactosidase activity, MPA: unit not given here; settings: for Fold induction: untitled table before Table 503, values match DHT / No Lig of Table 503; for ligand induced β-galactosidase activity, CPA / ligand induced β-galactosidase activity, DHT / ligand induced β-galactosidase activity, RU / ligand induced β-galactosidase activity, No Lig / ligand induced β-galactosidase activity, MPA / ligand induced β-galactosidase activity, Test: yeast two-hybrid
Description: Our library contained predominantly 15 random amino acid residues/peptide in order to identify motifs that might interact with nuclear receptor domains. If ligand is provided to the cells, one can screen for peptides that interact with the ligand-bound receptor. […] Included at the ends of the oligonucleotide were the synthetic restriction endonuclease cleavage sites, EcoRI or Mfe I (5′ end) and Sal I (3′ end). Oligonucleotides were annealed, then cleaved with excess restriction endonuclease and purified on agarose gels. The purified set of oligonucleotides was subcloned as an in-frame carboxy-terminal fusion to a Gal4 DNA binding domain (plasmid vector pMA424 derivative). […] The transformation mix was divided and grown on plates of selective media containing ligand and 25 mM 3-aminotriazole at 30° C. until colonies appeared in 3-7 days. […] Dihydrotestosterone (DHT) and medroxyprogesterone (MPA) were added to the media at 100 nM to identify peptides that interact with the receptor in the presence of ligand. After colonies appeared they were picked and dispersed into individual wells of a 96-well plate containing rich media (YPD).
To determine ligand dependence, two microliter aliquots were removed from the cell suspension, and arrayed and spotted onto each of two rectangular agar plates, one with 100 nM ligand and one without ligand. Growth was monitored daily.
A secondary test of ligand dependent activation was performed using the integrated GAL4-driven lacZ gene. Cell suspensions of the initial positive clones were diluted 20-fold into 20 microliters of rich media in a microplate and grown overnight at 30° C. in the presence and absence of ligand. Microplates were centrifuged for 5 minutes at 3000 rpm in a swinging table top centrifuge to pellet the yeast cells, and the overlying media was aspirated. […] An OD650 density determination was made to normalize the β-galactosidase activity. β-galactosidase activity was monitored following the addition of buffer containing chlorophenol red-β-galactopyranoside (CPRG) (Boehringer Mannheim) substrate at a final concentration of 0.5 mM. […] The maximum slope value of this measurement was normalized to cell density from the initial OD650 value, and the relative ligand dependence of β-galactosidase was determined by comparing the values plus and minus ligand.
In FIG. 3, all of these ligands were tested. The plasmids from true positives were extracted using standard yeast extraction protocols and re-transformed to verify the positive phenotype.

ERβ, sequence (Q92731 whole entry, species assumed): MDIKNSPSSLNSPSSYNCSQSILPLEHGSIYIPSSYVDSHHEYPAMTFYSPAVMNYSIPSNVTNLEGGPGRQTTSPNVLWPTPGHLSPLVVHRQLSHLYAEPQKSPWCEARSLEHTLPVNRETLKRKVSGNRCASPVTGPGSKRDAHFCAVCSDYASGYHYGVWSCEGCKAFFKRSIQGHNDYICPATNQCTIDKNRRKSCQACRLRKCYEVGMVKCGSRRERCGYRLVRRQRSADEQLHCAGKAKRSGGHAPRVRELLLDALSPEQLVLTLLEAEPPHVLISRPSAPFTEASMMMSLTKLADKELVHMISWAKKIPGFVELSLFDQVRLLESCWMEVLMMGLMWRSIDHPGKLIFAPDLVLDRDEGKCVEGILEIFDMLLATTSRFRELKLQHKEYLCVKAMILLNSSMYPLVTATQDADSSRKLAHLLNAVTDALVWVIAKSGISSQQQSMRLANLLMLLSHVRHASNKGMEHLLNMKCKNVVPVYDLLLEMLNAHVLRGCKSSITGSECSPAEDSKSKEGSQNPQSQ

| Equiv. (equivalency), peptide probe α/βIII on ERβ (ERβ) | Equiv. (equivalency), peptide probe α/βIV on ERβ (ERβ) | Equiv. (equivalency), peptide probe α/βV on ERβ (ERβ) | Equiv. (equivalency), peptide probe βI on ERβ (ERβ) | Equiv. (equivalency), peptide probe βIII on ERβ (ERβ) | luciferase normalized to β-galactosidase, CYP. (androgen receptor [1]) | luciferase normalized to β-galactosidase, DHT (androgen receptor [1]) | luciferase normalized to β-galactosidase, MPA (androgen receptor [1]) | luciferase normalized to β-galactosidase, RU486 (androgen receptor [1]) | luciferase normalized to β-galactosidase, no compound (androgen receptor [1]) | Fold induction (androgen receptor [2]) | ligand induced β-galactosidase activity, CPA (androgen receptor [2]) | ligand induced β-galactosidase activity, DHT (androgen receptor [2]) | ligand induced β-galactosidase activity, RU (androgen receptor [2]) | ligand induced β-galactosidase activity, No Lig (androgen receptor [2]) | Compound | also measured |
| --- | --- | --- | --- | --- | --- | --- | --- | --- | --- | --- | --- | --- | --- | --- | --- | --- |
| 34% | 0% | 13% | −62% | −61% |  |  |  |  |  |  |  |  |  |  | CCN(CC)CCOc1ccc(C(=C(Cl)c2ccccc2)c2ccccc2)cc1 [Clomiphene] |  |
| 77% | 0% | 0% | −53% | −71% |  |  |  |  |  |  |  |  |  |  | O=C(c1ccc(OCCN2CCCCC2)cc1)c1c(-c2ccc(O)cc2)sc2cc(O)ccc12 [Raloxifene] |  |
|  |  |  |  |  |  |  |  |  |  |  | 0.2919 | 1.719 | 0.5 | 0.3711 | EFPELLAMTRWGRHAALLEPQRLPPPRTTTQPQTEFERMFFFTRPMRTTGLLDLQPS [B2A7] |  |
|  |  |  |  |  |  |  |  |  |  |  | −0.03955 | 0.3948 | 0.1 | 0 | EFRFPFHEMVREWESMGLERVRYAEP [M4D1] | ligand induced β-galactosidase activity, MPA (androgen receptor [2]): 1.698; ligand induced β-galactosidase activity, Test (androgen receptor [2]): 0.1337 |
|  |  |  |  |  |  |  |  |  |  | 10 | 8.592 | 24.12 | 6.8 | 2.53 | EFRQSFVSEILGGGWLPLDLOPS [M2H3] | ligand induced β-galactosidase activity, MPA (androgen receptor [2]): 19.25; ligand induced β-galactosidase activity, Test (androgen receptor [2]): 26.57 |

Further lines, the compound ahead of its results:

| Compound | Equiv. (equivalency), peptide probe α/βIII on ERβ (ERβ) | Equiv. (equivalency), peptide probe α/βIV on ERβ (ERβ) | Equiv. (equivalency), peptide probe α/βV on ERβ (ERβ) | Equiv. (equivalency), peptide probe βI on ERβ (ERβ) | Equiv. (equivalency), peptide probe βIII on ERβ (ERβ) | luciferase normalized to β-galactosidase, CYP. (androgen receptor [1]) | luciferase normalized to β-galactosidase, DHT (androgen receptor [1]) | luciferase normalized to β-galactosidase, MPA (androgen receptor [1]) | luciferase normalized to β-galactosidase, RU486 (androgen receptor [1]) | luciferase normalized to β-galactosidase, no compound (androgen receptor [1]) | Fold induction (androgen receptor [2]) | ligand induced β-galactosidase activity, CPA (androgen receptor [2]) | ligand induced β-galactosidase activity, DHT (androgen receptor [2]) | ligand induced β-galactosidase activity, RU (androgen receptor [2]) | ligand induced β-galactosidase activity, No Lig (androgen receptor [2]) | also measured |
| --- | --- | --- | --- | --- | --- | --- | --- | --- | --- | --- | --- | --- | --- | --- | --- | --- |
| C[C@]12CC[C@@H]3c4ccc(O)cc4CC[C@H]3[C@@H]1C[C@@H](O)[C@@H]2O [Estriol] | −57% | −75% | 0% | −96% | 77% |  |  |  |  |  |  |  |  |  |  | Equiv. (equivalency), peptide probe α/βI on ERβ (ERβ; probe α/βI, positive: % of maximum stimulation by the modulator used to isolate the probe, negative: % of reduction by ICI 182,780): 81% |
| EFHSRLRVEVVSWGIGSTCSQANSGRISYDL* [B8H3] |  |  |  |  |  | 10.47 | 11.6 | 11.33 | 3.879 | 0.1316 | 22 | 0.3927 | 3.807 | −0.0 | 0.1737 |  |
| EFRSSVFEQMYLCTGGSLDLQPS* [B5G11] |  |  |  |  |  | 4.462 | 15.84 | 8.029 | 0.1051 | 0.05028 |  | 0.9726 | 3.964 | 0.9 | 0.6382 |  |
| EFVNWDAVVPWSELVALLDLOPS [B8A10] |  |  |  |  |  |  |  |  |  |  | 1 | 0.3955 | 0.6163 | 0.4 | 0.8753 |  |
| HPTHSSRLWELLMEATPTM [D30] |  |  |  |  |  | 11.18 | 12.59 | 15.62 | 0.8461 | 0.03854 |  |  |  |  |  |  |
